Measurements reported in patent US20100260818A1, “STABLE MEDICATED CHEWING GUM COMPRISING CYCLODEXTRIN INCLUSION COMPLEX” (FERTIN PHARMA A/S, priority 2007, published 2010).
Values joined by “and” are separate entries in the source; they are usually repeats but may differ in a detail not shown here. Identical values can stand only once. Values belong to the compound of their own block, whether it stands above or below them.

Experiments:
[1] = β-cyclodextrin content of filtrates of cetirizine.2HCL/β-cyclodextrin reaction mixture (HPLC, ELSD); assay type: physicochemical
[2] = Suspension homogeneity (visual) and chemical stability of cetirizine and β-cyclodextrin suspension with hydroxy acids, salts, NaOH; conditions: for Suspension homogeneity compared to control: visual
Experimental: The effect of different hydroxy acids, hydroxy acid salts and sodium hydroxide on the suspension homogeneity and also on the chemical stability of cetirizine in the suspensions was studied.
The cetirizine and β-cyclodextrin suspensions were prepared by stirring aqueous cetirizine solution with cyclodextrin and with the additives.

[3] = Powder sample storage stability, impurities by HPLC (Example 9); assay type: physicochemical; conditions: 34 days, 40 degrees C., 75% relative humidity; cyclodextrin and cetirizine uncomplexed in same formulation
Experimental: The four samples were stored in capped 50 mL Polyethylene Duma™ containers (Superfos Pharma Pack, Denmark) at 40 degrees C. and 75% relative humidity for 34 days, and were subsequently analysed by HPLC.

[4] = molar ratio CTZ:Additive not calculated

SMILES: O=C(O)CC(O)(CC(=O)O)C(=O)O [Citric acid]
- BCD content in the filtrate ([1]; molar ratio CTZ:Additive 1:1): 154 mg/mL
- Suspension homogeneity compared to control ([2]; molar ratio CTZ:Additive 1:1): no significant change

SMILES: O=C([O-])C(O)C(O)C(=O)[O-].[K+].[Na+] (stereo not drawn) [K—Na-tartarate, Potassium-sodium-tartarate]
- BCD content in the filtrate ([1]; molar ratio CTZ:Additive 1:5): 120 mg/mL
- Suspension homogeneity compared to control ([2]; molar ratio CTZ:Additive 1:5): better

SMILES: O=C([O-])CC(O)(CC(=O)[O-])C(=O)[O-].[Na+].[Na+].[Na+] [Na-citrate, Tri-sodium citrate]
- BCD content in the filtrate ([1]; molar ratio CTZ:Additive 1:4): 135 mg/mL
- Chemical degradations affecting β-cyclodextrin and cetirizine component of the binary formulation ([2]; effective amount of additive 3-6% by weight): effectively suppressed
- Suspension homogeneity compared to control ([2]; molar ratio CTZ:Additive 1:1): better
- Suspension homogeneity compared to control ([2]; molar ratio CTZ:Additive 1:2): better
- Suspension homogeneity compared to control ([2]; molar ratio CTZ:Additive 1:3): better
- Suspension homogeneity compared to control ([2]; molar ratio CTZ:Additive 1:4): better

- BCD content in the filtrate [1, 4]: 115 mg/mL and 125 mg/mL
- Suspension homogeneity compared to control [2, 4]: no significant change
SMILES: [Na+].[OH-] [NaOH, Sodium hydroxide]

SMILES: O=C(O)C(O)C(O)C(=O)O (stereo not drawn) [Tartaric acid]
- BCD content in the filtrate ([1]; molar ratio CTZ:Additive 1:2): 130 mg/mL
- Suspension homogeneity compared to control ([2]; molar ratio CTZ:Additive 1:2): better

- Effect on the stability of cetirizine [3]: does not have any significant effect
SMILES: OC[C@H]1O[C@@H]2O[C@H]3[C@H](O)[C@@H](O)[C@@H](O[C@H]4[C@H](O)[C@@H](O)[C@@H](O[C@H]5[C@H](O)[C@@H](O)[C@@H](O[C@H]6[C@H](O)[C@@H](O)[C@@H](O[C@H]7[C@H](O)[C@@H](O)[C@@H](O[C@H]8[C@H](O)[C@@H](O)[C@@H](O[C@H]1[C@H](O)[C@H]2O)O[C@@H]8CO)O[C@@H]7CO)O[C@@H]6CO)O[C@@H]5CO)O[C@@H]4CO)O[C@@H]3CO [un-complexed cyclodextrin, Beta-cyclodextrin]
